{
  "source": "patent US5138101A",
  "about": "“Recovery of high-boiling aldehydes from rhodium-catalyzed hydroformylation processes” (Eastman Kodak Company, priority 1991, dated 1992)",
  "key": {"[1]": {"conditions": "cited from earlier work"}, "[2]": {"assay": "Partitioning (partition coefficient, Kp) of hydroformylation products and hydroformylation solvent between hydroformylation solvent phase and alkanol/water extraction solution phase", "format": "physicochemical", "description": "The extraction process described herein is the equilibration of a particular compound dissolving into two separate liquid phases. The effectiveness of the present extraction process may be measured in terms of the partition coefficient (Kp) for a compound \"X\" which is defined as: [formula] […] High Kp values give high extraction efficiencies requiring lower amounts of extraction solution. Similarly, it is desirable that the Kp of the hydroformylation solvent be a low value. This simplifies purification of the aldehyde products down-stream. In the hydroformylation of diolefins to dialdehydes, it also is desirable to have Kp values for the dialdehyde products larger than the Kp values of the intermediate mono-aldehyde mono-olefin (formyl-olefin) intermediate formed in the hydroformylation reaction. This permits recycling of the formyl-olefin to the hydroformylation reactor in the hydroformylation solvent for further reaction to the desired dialdehyde product, while selectively extracting the desired di-aldehyde product. Likewise, for the same reason, it is desirable to have low Kp values for the olefin or polyolefin feedstocks used in the process.\nThe extraction examples were carried out in a 300 mL, 3-neck, glass flask equipped with a Teflon magnetic stir bar, a thermometer to measure the temperature of the liquid, a septum for the use of a syringe, a heating mantle and a nitrogen bubbler blanket for the system. […] […] The mixture was stirred at 25° C. for 30 minutes to reach equilibrium, stirring was stopped, and the mixture was allowed to separate into 2 layers (phases) over a 30 minute period of time. […] Samples of each phase were taken with a syringe and chromatographed on a Hewlett Packard Model 5730 capillary FID gas chromatograph. The instrument used a 30 meter DB-1 column (Supelco.) with a programming rate of a 4 minute hold at 70° C. with a programming rate of 8° C./minute to 250° C. The calculations for the weights of hydroformylation products in each phase were carried out using standard procedures using the dodecane as an internal standard for the catalyst layer and methanol as the internal standard for the aqueous layer. The initial volumes of the two phases were used for estimation of the volumes of the two phases at equilibrium to obtain the concentrations of the products in each phase.\nThe partition coefficients (Kp) were calculated for the C9-enal and C10-dial products for equilibrium between the dodecane hydroformylation solvent and the extraction solution phases at 25° C.\nThe two phases in the flask were heated to and maintained at 53° C. with stirring for 30 minutes to reach equilibrium. The mixture was allowed to separate into 2 layers at 53° C. and each layer was sampled and analyzed as described above. […] The partitioning procedure was repeated at 70° C."}},
  "note": "Like-named read-outs stand apart in the source and are kept apart here.",
  "data": [
    {"smiles": "[Rh]", "note": "[Rh, rhodium]", "values": [
      {"measurement": "Rhodium extracted into the aqueous phase", "setting": "[1]; 4-hydroxybutyraldehyde 38 percent by weight, U.S. Pat. No. 4,678,857", "value": "5 mg of rhodium per liter"},
      {"measurement": "Rhodium extracted into the aqueous phase", "setting": "[1]; aqueous 2-N,N-dimethylaminoethanol, U.S. Pat. No. 4,292,196", "value": 70, "unit": "%"}
    ]},
    {"smiles": "CC(C)c1ccc(C(C)C)cc1", "note": "[p-diisopropylbenzene]", "values": [
      {"measurement": "Partition Coefficient", "setting": "[2]; Example 3, Ref. Ex. 19, MeOH:water 3:1, 29° C.", "value": 0.075},
      {"measurement": "Partition Coefficient", "setting": "[2]; Example 4, Ref. Ex. 19, MeOH:water 3:1, 58° C.", "value": 0.118},
      {"measurement": "Partition Coefficient", "setting": "[2]; Example 5, Ref. Ex. 19, MeOH:water 1.5:1, 58° C.", "value": 0.050},
      {"measurement": "Partition Coefficient", "setting": "[2]; Example 6, Ref. Ex. 19, MeOH:water 1.5:1, 31° C.", "value": 0.018},
      {"measurement": "Partition Coefficient", "setting": "[2]; Example 18, Ref. Ex. 24, EtOH:water 7:4, 52° C.", "value": 0.033},
      {"measurement": "Partition Coefficient", "setting": "[2]; Example 19, Ref. Ex. 24, EtOH:water 7:4, 32° C.", "value": 0.009},
      {"measurement": "Partition Coefficient", "setting": "[2]; Example 24, Ref. Ex. 19, MeOH:water 3:1, 29° C.", "value": 0.075},
      {"measurement": "Partition Coefficient", "setting": "[2]; Example 25, Ref. Ex. 19, MeOH:water 3:1, 58° C.", "value": 0.118},
      {"measurement": "Partition Coefficient", "setting": "[2]; Example 26, Ref. Ex. 19, MeOH:water 1.5:1, 58° C.", "value": 0.050},
      {"measurement": "Partition Coefficient", "setting": "[2]; Example 27, Ref. Ex. 19, MeOH:water 1.5:1, 31° C.", "value": 0.018},
      {"measurement": "Partition Coefficient", "setting": "[2]; Example 28, Ref. Ex. 24, EtOH:water 3:1, 48° C.", "value": 0.298},
      {"measurement": "Partition Coefficient", "setting": "[2]; Example 29, Ref. Ex. 24, EtOH:water 3:1, 33° C.", "value": 0.229},
      {"measurement": "Partition Coefficient", "setting": "[2]; Example 30, Ref. Ex. 24, EtOH:water 7:4, 52° C.", "value": 0.033},
      {"measurement": "Partition Coefficient", "setting": "[2]; Example 31, methanol/water 37/12 mL, 50° C., Na 0", "value": 0.096},
      {"measurement": "Partition Coefficient", "setting": "[2]; Example 32, 50° C., Na 82 mg/L as 2-ethylhexanoate", "value": 0.125},
      {"measurement": "Partition Coefficient", "setting": "[2]; Example 33, 50° C., Na 164 mg/L as 2-ethylhexanoate", "value": 0.115},
      {"measurement": "Partition Coefficient", "setting": "[2]; Example 34, 50° C., Na 327 mg/L as 2-ethylhexanoate", "value": 0.131},
      {"measurement": "Partition Coefficient", "setting": "[2]; Example 35, 50° C., Na 653 mg/L as 2-ethylhexanoate", "value": 0.137},
      {"measurement": "Partition Coefficient", "setting": "[2]; Example 36, 50° C., Na 1307 mg/L as 2-ethylhexanoate", "value": 0.063},
      {"measurement": "Partition Coefficient", "setting": "[2]; Example 37, methanol/water 37/12 mL, 50° C., Na 0", "value": 0.064},
      {"measurement": "Partition Coefficient", "setting": "[2]; Example 38, 50° C., Na 82 mg/L as oleate", "value": 0.083},
      {"measurement": "Partition Coefficient", "setting": "[2]; Example 39, 50° C., Na 164 mg/L as oleate", "value": 0.062},
      {"measurement": "Partition Coefficient", "setting": "[2]; Example 40, 50° C., Na 327 mg/L as oleate", "value": 0.083},
      {"measurement": "Partition Coefficient", "setting": "[2]; Example 41, 50° C., Na 653 mg/L as oleate", "value": 0.052},
      {"measurement": "Partition Coefficient", "setting": "[2]; Example 42, 50° C., Na 1307 mg/L as oleate", "value": 0.063},
      {"measurement": "Partition Coefficient", "setting": "[2]; Example 43, methanol/water 37/12 mL, 50° C., Na 0", "value": 0.074},
      {"measurement": "Partition Coefficient", "setting": "[2]; Example 44, 50° C., Na 82 mg/L as n butyrate", "value": 0.063},
      {"measurement": "Partition Coefficient", "setting": "[2]; Example 45, 50° C., Na 164 mg/L as n butyrate", "value": 0.073},
      {"measurement": "Partition Coefficient", "setting": "[2]; Example 46, 50° C., Na 327 mg/L as n butyrate", "value": 0.053},
      {"measurement": "Partition Coefficient", "setting": "[2]; Example 47, 50° C., Na 653 mg/L as n butyrate", "value": 0.051},
      {"measurement": "Partition Coefficient", "setting": "[2]; Example 48, 50° C., Na 1307 mg/L as n butyrate", "value": 0.038},
      {"measurement": "Partition Coefficient", "setting": "[2]; Example 49, methanol/water 37/27 mL, Na 0", "value": 0.0164},
      {"measurement": "Partition Coefficient", "setting": "[2]; Example 50, methanol/water 37/27 mL, Na 100 as oleate", "value": 0.0210},
      {"measurement": "Partition Coefficient", "setting": "[2]; Example 51, methanol/water 37/27 mL, Na 200 as oleate", "value": 0.0210},
      {"measurement": "Partition Coefficients", "setting": "[2]; Example 52, Ref. Ex. 1, MeOH:water 3:1, 50° C., Na 0", "value": 0.115},
      {"measurement": "Partition Coefficients", "setting": "[2]; Example 54, Ref. Ex. 1, Na 164 mg/L", "value": 0.073},
      {"measurement": "Partition Coefficients", "setting": "[2]; Example 56, Ref. Ex. 11, Na 0", "value": 0.081},
      {"measurement": "Partition Coefficients", "setting": "[2]; Example 58, Ref. Ex. 11, Na 164 mg/L", "value": 0.073},
      {"measurement": "Partition Coefficients", "setting": "[2]; Example 60, Ref. Ex. 12, Na 0", "value": 0.071},
      {"measurement": "Partition Coefficients", "setting": "[2]; Example 62, Ref. Ex. 12, Na 164 mg/L", "value": 0.067},
      {"measurement": "Partition Coefficients", "setting": "[2]; Example 64, Ref. Ex. 7, Na 0", "value": 0.056},
      {"measurement": "Partition Coefficients", "setting": "[2]; Example 66, Ref. Ex. 7, Na 164 mg/L", "value": 0.072},
      {"measurement": "Partition Coefficients", "setting": "[2]; Example 68, Ref. Ex. 13, Na 0", "value": 0.076},
      {"measurement": "Partition Coefficients", "setting": "[2]; Example 70, Ref. Ex. 13, Na 164 mg/L", "value": 0.060},
      {"measurement": "Partition Coefficient", "setting": "[2]; Example 79, VCH product, Ref. Ex. 3, 40 mL methanol, 10 mL water, 50° C.", "value": 0.0859},
      {"measurement": "Partition Coefficient", "setting": "[2]; Example 80, as Example 79 plus 10 mL water", "value": 0.0233},
      {"measurement": "Partition Coefficient", "setting": "[2]; Example 81, as Example 80 plus 10 mL water", "value": 0.0050},
      {"measurement": "Partition Coefficient", "setting": "[2]; Example 82, as Example 81 plus 10 mL water", "value": 0.0017},
      {"measurement": "Partition Coefficient", "setting": "[2]; Example 83, DCPD product, Ref. Ex. 4, procedure of Examples 79-82", "value": 0.0724},
      {"measurement": "Partition Coefficient", "setting": "[2]; Example 84, DCPD product, Ref. Ex. 4, procedure of Examples 79-82", "value": 0.0469},
      {"measurement": "Partition Coefficient", "setting": "[2]; Example 85, DCPD product, Ref. Ex. 4, procedure of Examples 79-82", "value": 0.0269},
      {"measurement": "Partition Coefficient", "setting": "[2]; Example 86, CDDT product, Ref. Ex. 2, 37 mL methanol, 12 mL water, 25° C.", "value": 0.0297},
      {"measurement": "Partition Coefficient", "setting": "[2]; Example 87, as Example 86 plus 10 mL methanol", "value": 0.077},
      {"measurement": "Partition Coefficient", "setting": "[2]; Example C-7, Ref. Ex. 19, DEG:water 3:1, 30° C.", "value": 0.128},
      {"measurement": "Partition Coefficient", "setting": "[2]; Example C-8, Ref. Ex. 19, DEG:water 1.5:1, 25° C.", "value": 0.030},
      {"measurement": "Partition Coefficient", "setting": "[2]; Example C-9, Ref. Ex. 10, PrOH:water 3:1, 50° C.", "value": 0.055},
      {"measurement": "Partition Coefficient", "setting": "[2]; Example C-10, Ref. Ex. 10, PrOH:water 1.5:1, 50° C.", "value": 0.018},
      {"measurement": "Partition Coefficient", "setting": "[2]; Example C-11, Ref. Ex. 10, PrOH:water 1:1, 50° C.", "value": 0.013},
      {"measurement": "Partition Coefficient", "setting": "[2]; Example C-16, Ref. Ex. 19, DEG, no water, 58° C.", "value": 0.128},
      {"measurement": "Partition Coefficient", "setting": "[2]; Example C-17, Ref. Ex. 19, DEG, no water, 33° C.", "value": 0.128},
      {"measurement": "Partition Coefficient", "setting": "[2]; Example C-18, Ref. Ex. 19, DEG:water 3:1, 30° C.", "value": 0.030},
      {"measurement": "Partition Coefficient", "setting": "[2]; Example C-19, Ref. Ex. 19, DEG:water 3:1, 60° C.", "value": 0.014},
      {"measurement": "Partition Coefficient", "setting": "[2]; Example C-20, Ref. Ex. 19, DEG:water 1.5:1, 60° C.", "value": 0.0061},
      {"measurement": "Partition Coefficient", "setting": "[2]; Example C-21, Ref. Ex. 19, DEG:water 1.5:1, 25° C.", "value": 0.0030},
      {"measurement": "Partition Coefficient", "setting": "[2]; Example C-22, Ref. Ex. 10, PrOH:water 3:1, 50° C.", "value": 0.055},
      {"measurement": "Partition Coefficient", "setting": "[2]; Example C-23, Ref. Ex. 10, PrOH:water 1.5:1, 50° C.", "value": 0.0182},
      {"measurement": "Partition Coefficient", "setting": "[2]; Example C-24, Ref. Ex. 10, PrOH:water 1:1, 50° C.", "value": 0.0132}
    ]}
  ]
}
